Laboratory results published in patent publication US10301298B2, “Methods, compounds, and compositions for the treatment of angiotensin-related diseases” (University of Southern California, priority 2013, dated 2019).

Columns and labels:
[1] = test system: db/db mice; assay: Liver lipid levels, Oil Red O staining, in db/db mice; assay type: in vivo; conditions: 500 mcg/kg/day, 14 days
Experimental: The lipid levels found in the liver was evaluated in db/db animals treated for 14 days with vehicle, 500 mcg/kg/day Ang(1-7) or Compound 7. Livers isolated from mice were harvested. Liver tissue sections were washed with cold saline and frozen in the presence of optimum cutting temperature (OCT) formulation. Tissues were then cut into 10-μm sections using a cryostat. Oil Red O staining and H&E staining were performed according to published procedures (Yang et al., 2013). The tissues were observed and images acquired using a light microscope (Olympus BX51) (FIG. 6).

[2] = target: T1, Mas (Homo sapiens, UniProt P04201); assay: NO production in CHO cells stably transfected with Human Mas1; assay type: cell-based; conditions: for NO production with co-administration of A779: with A779, selective Mas antagonist, 1×10^−7 M
T1 construct: expressed in transfected cells
T1 sequence (P04201 1-325): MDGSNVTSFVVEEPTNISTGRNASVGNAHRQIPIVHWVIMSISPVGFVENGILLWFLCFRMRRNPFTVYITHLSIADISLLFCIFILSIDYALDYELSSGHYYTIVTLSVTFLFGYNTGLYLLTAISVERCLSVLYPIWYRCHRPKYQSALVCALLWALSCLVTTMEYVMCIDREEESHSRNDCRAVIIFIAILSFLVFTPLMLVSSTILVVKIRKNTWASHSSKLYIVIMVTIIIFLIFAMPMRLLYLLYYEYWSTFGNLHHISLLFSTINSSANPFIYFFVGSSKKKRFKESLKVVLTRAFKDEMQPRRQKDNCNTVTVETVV
Experimental: Transfected cells that express Mas were used to identify and evaluate provided compounds as Mas agonists, by promoting NO production as readouts. CHO cells stably transfected with pTEJ-8 vector containing recombinant Human Mas1 clone were grown to confluency. Cells were washed three times for 30/5/5 minutes with prewarmed (37° C.) Tyrodes Salts (supplemented with 1 g/L NaHCO3, and 1.9 g/L d-Glucose). Cells were incubated for a short time in 700 μL of supplemented Tyrodes salts containing 10 μM PTIO, 100 μM DAN, and 1 mM L-arginine. When using antagonist for competition assays, cells were exposed to the inhibitor at 1×10^−7 M for 15 minutes, before additional drugs are added.
Chemicals (10^−8 to 10^−6 M or the maximum concentration found not to cause cytotoxicity) to be screened were added to the cell medium and the plates were agitated for 1 minute before being placed into the incubator for 2 hours. After 2 hours, cellular supernatants were transferred to opaque 96 well plates, and the fluorescence intensity was recorded at an ex/em of 380/425.

[3] = test system: C57Bl/6 mice; assay: Acute toxicity in C57Bl/6 mice; assay type: in vivo; conditions: 500 μg/kg subcutaneous or intravenous, 7 days after treatment
Experimental: Compound 7 was evaluated for acute toxicity at 500 μg/kg in C57Bl/6 mice that was given as either a subcutaneous or intravenous injection, and its safety was evaluated for 7 days after treatment.

[4] = target: T1, Mas; assay: Competition binding assay, displacement of fluorescent Ang(1-7) from Mas-transfected CHO cells; set-up: concentration or dose not given beside the values; conditions: CHO cells transfected with Human mas1, on ice
Experimental: CHO cells stably transfected with recombinant Human mas1 proto-oncogen driven by the human cytomegalovirus were grown to 80% confluency. The cells were detached with trypsin and harvested by centrifugation. Cells were washed three times in progressively colder buffers. The final number of cells per assay was 5×10^5. All subsequent steps were performed on ice. Test compound was added to the cells for 10 minutes prior to addition of fluorescently labeled A(1-7). After 10 minutes further incubation, the cells were washed to remove unbound A(1-7) and the fluorescence bound was read at an excitation of 490 nm and an emission of 520 nm.

[5] = test system: db/db mice; assay: Organ weights (organmegaly) in db/db mice; assay type: in vivo; conditions: 14 days
Excerpt: Compound 7 (500 mcg/kg/day) or Ang(1-7) (500 mcg/kg/day) treated db/db mice were euphanized after 14 days of treatment. At necropsy, organs were collected for histology and weights. In FIG. 6A to 6C, hearts, left and right kidney normalized to tibia length were weight where db/db treated with Compound 7 were lower than db/db-controls (saline) and db/db treated with Ang(1-7).

[6] = target: T2, AT2R (Homo sapiens, UniProt P50052); assay: AT2R displacement assay with radiolabeled Ang II; assay type: binding; conditions: displacement of radiolabeled Ang II or analogs; read-out: EC50 displacing Ang II in the AT2R displacement assay
T2 sequence (P50052 1-363): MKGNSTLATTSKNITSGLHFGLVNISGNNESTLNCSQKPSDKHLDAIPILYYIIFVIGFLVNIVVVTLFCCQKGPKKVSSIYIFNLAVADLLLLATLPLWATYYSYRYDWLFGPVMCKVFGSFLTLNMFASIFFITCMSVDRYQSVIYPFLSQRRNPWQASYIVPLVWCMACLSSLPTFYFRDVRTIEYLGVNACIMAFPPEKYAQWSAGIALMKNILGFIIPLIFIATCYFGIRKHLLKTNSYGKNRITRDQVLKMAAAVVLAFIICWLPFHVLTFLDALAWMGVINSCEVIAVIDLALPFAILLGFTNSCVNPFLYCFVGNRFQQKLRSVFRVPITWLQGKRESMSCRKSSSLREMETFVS
Experimental: (§1) Compound 7 was evaluated in vitro for its ability to compete with ratholabeled Ang II or analogs in a displacement assay for AT1R and AT2R receptors.

[7] = target: T3, AT1R (Homo sapiens, UniProt P30556); assay: AT1R displacement assay with radiolabeled Ang II; assay type: binding; conditions: displacement of radiolabeled Ang II or analogs; read-out: EC50 displacing Ang II at the AT1 receptor
T3 sequence (P30556 1-359): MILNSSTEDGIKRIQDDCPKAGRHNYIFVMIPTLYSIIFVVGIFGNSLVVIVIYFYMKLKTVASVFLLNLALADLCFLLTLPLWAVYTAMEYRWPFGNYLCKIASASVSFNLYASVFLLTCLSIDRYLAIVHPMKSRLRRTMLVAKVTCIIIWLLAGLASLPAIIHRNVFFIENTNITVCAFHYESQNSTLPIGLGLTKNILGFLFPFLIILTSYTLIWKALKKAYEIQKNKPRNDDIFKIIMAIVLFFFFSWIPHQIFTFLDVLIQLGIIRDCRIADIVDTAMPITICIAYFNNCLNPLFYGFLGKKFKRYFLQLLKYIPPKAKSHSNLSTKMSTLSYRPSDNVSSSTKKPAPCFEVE
Experimental: as §1

[8] = 500 mcg/kg/day, p<0.05 vs db/db controls

For `CCCCOC(=O)NS(=O)(=O)c1ccc(OC(F)(F)F)cc1-c1ccc(Cn2ccnc2)cn1` [Compound 7, butyl (2-(5-((1H-imidazol-1-yl)methyl)pyridin-2-yl)-4-(trifluoromethoxy)phenyl)sulfonylcarbamate], the “Oil Red staining of liver (lipid deposition) compared with db/db controls” value [1] was “reduced Oil Red staining”, the “ability to enhance NO production (fluorescence)” value ([2]; Mas-transfected CHO cells) was “concentration dependent increase in NO” and the EC50 ([2]; Mas-transfected CHO cells, 2 hours) was 0.01 µM. The “NO production with co-administration of A779” value [2] was “back to baseline”, the “NO production with co-administration of A779” value ([2]; listed as compound 7) was “back to baseline fluorescence” and the acute toxicity [3] was “No overt signs of toxicity”. The “% Displacement” value [4] was 28.1%, the right kidney weight ([5]; 500 μg/kg/day) was “trended to be similar to heterozygous control” and the “development of cardiomegaly (heart weight normalized to tibia length)” value [5, 8] was “prevent the development of cardiomegaly”. The “development of left kidney hypertrophy (weight normalized to tibia length)” value [5, 8] was “prevent”, the EC50 [6] was over 10 µM and the EC50 [7] was over 10 µM.
